In patent US20250064941A1, “SIGLEC LIGANDS, CONJUGATES, AND METHODS OF USE THEREOF” (Osprey Biopharmaceuticals, Inc., priority 2023, published 2025):

Key:
[1] = molecular target: T1, mouse Siglec-2-Fc-Avi (CD22) (Mus musculus, UniProt P35329); test: SPR binding affinity to mouse CD22; details: steady-state analysis
T1 construct: made in house
T1 sequence (P35329 22-708 limits assumed): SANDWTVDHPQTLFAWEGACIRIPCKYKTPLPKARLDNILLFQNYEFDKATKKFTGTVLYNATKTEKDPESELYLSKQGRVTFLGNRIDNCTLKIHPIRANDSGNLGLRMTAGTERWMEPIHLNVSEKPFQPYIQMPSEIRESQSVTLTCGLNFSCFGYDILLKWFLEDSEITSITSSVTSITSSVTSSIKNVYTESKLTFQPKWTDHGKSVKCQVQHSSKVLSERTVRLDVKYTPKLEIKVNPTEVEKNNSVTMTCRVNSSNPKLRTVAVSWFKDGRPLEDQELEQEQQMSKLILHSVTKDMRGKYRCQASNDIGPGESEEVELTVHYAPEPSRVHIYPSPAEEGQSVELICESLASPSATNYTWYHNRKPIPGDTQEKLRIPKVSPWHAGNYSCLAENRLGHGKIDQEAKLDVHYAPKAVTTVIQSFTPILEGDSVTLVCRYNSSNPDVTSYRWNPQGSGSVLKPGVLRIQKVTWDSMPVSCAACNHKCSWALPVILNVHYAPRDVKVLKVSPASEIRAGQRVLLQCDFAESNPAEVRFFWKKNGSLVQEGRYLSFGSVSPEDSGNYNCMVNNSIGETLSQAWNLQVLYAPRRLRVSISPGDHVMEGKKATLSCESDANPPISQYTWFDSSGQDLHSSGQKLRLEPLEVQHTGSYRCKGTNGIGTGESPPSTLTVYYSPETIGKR
In short: (§1)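 Steady-state fits gave the affinities. Before capture on a streptavidin surface, biotinylated CD22 had native sialic acids stripped (SialoExo, 4 hours, 37° C.). Running buffer: 10 mM HEPES pH 7.5, 150 mM NaCl, 0.05% Tween-20, 1% DMSO, with DMSO solvent correction.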

[2] = molecular target: T2, human Siglec-2/CD22 protein (Homo sapiens, UniProt P20273); test: SPR binding affinity to human CD22; details: steady-state analysis
T2 construct: purchased Acro Biosystems SI2-H82E3
T2 sequence (P20273 20-847): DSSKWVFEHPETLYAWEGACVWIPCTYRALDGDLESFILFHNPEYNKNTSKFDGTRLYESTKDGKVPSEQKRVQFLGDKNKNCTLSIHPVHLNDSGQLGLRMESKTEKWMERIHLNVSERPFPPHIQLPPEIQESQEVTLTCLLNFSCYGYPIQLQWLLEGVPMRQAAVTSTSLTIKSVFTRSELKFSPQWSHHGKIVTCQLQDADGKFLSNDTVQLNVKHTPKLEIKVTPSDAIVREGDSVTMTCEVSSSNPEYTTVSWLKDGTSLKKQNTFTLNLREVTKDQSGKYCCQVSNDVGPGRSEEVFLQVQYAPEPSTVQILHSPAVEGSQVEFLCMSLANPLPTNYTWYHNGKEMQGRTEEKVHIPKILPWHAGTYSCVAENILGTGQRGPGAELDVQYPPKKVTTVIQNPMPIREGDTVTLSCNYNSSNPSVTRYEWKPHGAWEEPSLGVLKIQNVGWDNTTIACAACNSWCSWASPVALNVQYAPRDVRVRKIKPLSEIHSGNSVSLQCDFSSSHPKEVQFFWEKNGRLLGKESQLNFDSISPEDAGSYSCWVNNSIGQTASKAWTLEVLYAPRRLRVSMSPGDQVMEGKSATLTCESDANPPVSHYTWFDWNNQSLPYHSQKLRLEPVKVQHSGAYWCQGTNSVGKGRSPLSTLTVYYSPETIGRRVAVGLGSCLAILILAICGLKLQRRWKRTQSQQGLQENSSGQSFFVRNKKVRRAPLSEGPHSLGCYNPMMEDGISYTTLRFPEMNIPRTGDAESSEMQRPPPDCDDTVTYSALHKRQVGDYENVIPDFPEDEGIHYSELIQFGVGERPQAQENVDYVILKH
In short: as §1

cynomolgus Siglec-2/CD22 = cynomolgus Siglec-2/CD22 (Macaca fascicularis, UniProt A0A2K5WCZ6); test: biochemical; assay type: binding; details: SPR, steady-state analysis; read-out: Affinity cyno CD22
Sequence of cynomolgus Siglec-2/CD22 (A0A2K5WCZ6 entry or part of it): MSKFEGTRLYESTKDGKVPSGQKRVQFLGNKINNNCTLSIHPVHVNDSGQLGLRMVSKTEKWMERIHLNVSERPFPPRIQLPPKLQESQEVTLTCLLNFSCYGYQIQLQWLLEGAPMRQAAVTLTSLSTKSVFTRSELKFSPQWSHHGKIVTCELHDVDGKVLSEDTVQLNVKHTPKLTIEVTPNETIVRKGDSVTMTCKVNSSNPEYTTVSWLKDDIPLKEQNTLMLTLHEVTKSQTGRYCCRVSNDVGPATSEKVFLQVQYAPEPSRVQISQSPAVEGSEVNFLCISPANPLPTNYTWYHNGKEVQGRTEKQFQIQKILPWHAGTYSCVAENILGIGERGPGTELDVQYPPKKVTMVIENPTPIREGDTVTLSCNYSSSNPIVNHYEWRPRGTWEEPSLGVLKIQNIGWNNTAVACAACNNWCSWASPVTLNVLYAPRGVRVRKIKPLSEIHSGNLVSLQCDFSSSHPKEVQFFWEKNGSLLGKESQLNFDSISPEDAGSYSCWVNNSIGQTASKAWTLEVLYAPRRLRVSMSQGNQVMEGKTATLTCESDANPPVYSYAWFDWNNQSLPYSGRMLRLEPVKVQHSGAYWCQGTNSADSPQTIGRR
In short: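 Compound binding measured by steady-state SPR analysis, 120 s dissociation, in HEPES-NaCl-Tween buffer pH 7.5 containing 1% DMSO, DMSO solvent-corrected. Surface: cyno CD22, sialic acids first stripped by SialoExo for 4 h at 37° C., then amine-coupled onto CM5.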

| SMILES | Kd [1] | Kd [2] | Kd (cynomolgus Siglec-2/CD22) |
| --- | --- | --- | --- |
| C#CCOc1ccc(CO[C@]2(C(=O)O)C[C@H](O)[C@@H](NC(=O)CO)[C@H]([C@H](O)[C@H](O)CNC(=O)Cc3ccccc3O)O2)cc1 [Compound 145, (2R,4S,5R,6R)-6-((1R,2R)-1,2-dihydroxy-3-(2-(2-hydroxyphenyl)acetamido)propyl)-4-hydroxy-5-(2-hydroxyacetamido)-2-((4-(prop-2-yn-1-yloxy)benzyl)oxy)tetrahydro-2H-pyran-2-carboxylic acid] | 1 to 10 µM | 1 to 10 µM | 1 to 10 µM |
| C#CCOc1ccc(CO[C@]2(C(=O)O)C[C@H](O)[C@@H](NC(=O)CO)[C@H]([C@H](O)[C@H](O)CNC(=O)Cc3ccc(O)cc3)O2)cc1 [Compound 146, (2R,4S,5R,6R)-6-((1R,2R)-1,2-dihydroxy-3-(2-(4-hydroxyphenyl)acetamido)propyl)-4-hydroxy-5-(2-hydroxyacetamido)-2-((4-(prop-2-yn-1-yloxy)benzyl)oxy)tetrahydro-2H-pyran-2-carboxylic acid] | 1 to 10 µM | 1 to 10 µM | < 1 µM |
| C#CCCCCCCc1cn([C@]2(C(=O)O)C[C@H](O)[C@@H](NC(=O)CO)[C@H]([C@H](O)[C@H](O)CNC(=O)Cc3cccc(O)c3)O2)nn1 [Compound 147, (2R,4S,5R,6R)-6-((1R,2R)-1,2-dihydroxy-3-(2-(3-hydroxyphenyl)acetamido)propyl)-4-hydroxy-5-(2-hydroxyacetamido)-2-(4-(oct-7-yn-1-yl)-1H-1,2,3-triazol-1-yl)tetrahydro-2H-pyran-2-carboxylic acid] | 1 to 10 µM | 1 to 10 µM | 1 to 10 µM |
| C#CCCOc1ccc(CS[C@]2(C(=O)O)C[C@H](O)[C@@H](NC(=O)CO)[C@H]([C@H](O)[C@H](O)CNC(=O)Cc3ccc(O)cc3)O2)cc1 [Compound 148, (2S,4S,5R,6R)-2-((4-(but-3-yn-1-yloxy)benzyl)thio)-6-((1R,2R)-1,2-dihydroxy-3-(2-(4-hydroxyphenyl)acetamido)propyl)-4-hydroxy-5-(2-hydroxyacetamido)tetrahydro-2H-pyran-2-carboxylic acid] | < 1 µM | < 1 µM | 1 to 10 µM |
| C#CCCOc1ccc(CS[C@]2(C(=O)O)C[C@H](O)[C@@H](NC(=O)CO)[C@H]([C@H](O)[C@H](O)CNC(=O)Cc3cccc(O)c3)O2)cc1 [Compound 149, (2S,4S,5R,6R)-2-((4-(but-3-yn-1-yloxy)benzyl)thio)-6-((1R,2R)-1,2-dihydroxy-3-(2-(3-hydroxyphenyl)acetamido)propyl)-4-hydroxy-5-(2-hydroxyacetamido)tetrahydro-2H-pyran-2-carboxylic acid] | 1 to 10 µM | < 1 µM | 1 to 10 µM |
| C#CCOc1ccc(CO[C@]2(C(=O)O)C[C@H](O)[C@@H](NC(=O)CO)[C@H]([C@H](O)[C@H](O)CNC(=O)Cc3cccc(O)c3)O2)cc1 [Compound 150, (2R,4S,5R,6R)-6-((1R,2R)-1,2-dihydroxy-3-(2-(3-hydroxyphenyl)acetamido)propyl)-4-hydroxy-5-(2-hydroxyacetamido)-2-((4-(prop-2-yn-1-yloxy)benzyl)oxy)tetrahydro-2H-pyran-2-carboxylic acid] | 1 to 10 µM | < 1 µM | 1 to 10 µM |
| C#CCOCCOCCO[C@]1(C(=O)O)C[C@H](O)[C@@H](NC(=O)CO)[C@H]([C@H](O)[C@H](O)CNC(=O)Cc2ccccc2O)O1 [Compound 151, (2R,4S,5R,6R)-6-((1R,2R)-1,2-dihydroxy-3-(2-(2-hydroxyphenyl)acetamido)propyl)-4-hydroxy-5-(2-hydroxyacetamido)-2-(2-(2-(prop-2-yn-1-yloxy)ethoxy)ethoxy)tetrahydro-2H-pyran-2-carboxylic acid] | 1 to 10 µM | 1 to 10 µM | > 10 µM |
| C#CCOCCOCCO[C@]1(C(=O)O)C[C@H](O)[C@@H](NC(=O)CO)[C@H]([C@H](O)[C@H](O)CNC(=O)Cc2cccc(O)c2)O1 [Compound 152, (2R,4S,5R,6R)-6-((1R,2R)-1,2-dihydroxy-3-(2-(3-hydroxyphenyl)acetamido)propyl)-4-hydroxy-5-(2-hydroxyacetamido)-2-(2-(2-(prop-2-yn-1-yloxy)ethoxy)ethoxy)tetrahydro-2H-pyran-2-carboxylic acid] | < 1 µM | 1 to 10 µM | 1 to 10 µM |
| C#CCOCCOCCO[C@]1(C(=O)O)C[C@H](O)[C@@H](NC(=O)CO)[C@H]([C@H](O)[C@H](O)CNC(=O)Cc2ccc(O)cc2)O1 [Compound 153, (2R,4S,5R,6R)-6-((1R,2R)-1,2-dihydroxy-3-(2-(4-hydroxyphenyl)acetamido)propyl)-4-hydroxy-5-(2-hydroxyacetamido)-2-(2-(2-(prop-2-yn-1-yloxy)ethoxy)ethoxy)tetrahydro-2H-pyran-2-carboxylic acid] | < 1 µM | 1 to 10 µM | 1 to 10 µM |
| O=C(O)CCOCCOCCOCCOCCNc1c(NCCCCCCO[C@]2(C(=O)O)C[C@H](O)[C@@H](NC(=O)CO)[C@H]([C@H](O)[C@H](O)CNC(=O)Cc3ccc(Cl)cc3)O2)c(=O)c1=O [Compound 154, (2R,4S,5R,6R)-2-((6-((2-((14-carboxy-3,6,9,12-tetraoxa-tetradecyl)amino)-3,4-dioxocyclobut-1-en-1-yl)amino)hexyl)oxy)-6-((1R,2R)-3-(2-(4-chlorophenyl)acetamido)-1,2-dihydroxypropyl)-4-hydroxy-5-(2-hydroxyacetamido) tetrahydro-2H-pyran-2-carboxylic acid] | < 1 µM | < 1 µM | < 1 µM |
| C#CCOCCCCCCO[C@]1(C(=O)O)C[C@H](O)[C@@H](NC(=O)CO)[C@H]([C@H](O)[C@H](O)CNC(=O)Cc2cccc(OC(F)(F)F)c2)O1 [Compound 155, (2R,4S,5R,6R)-6-((1R,2R)-1,2-dihydroxy-3-(2-(3-(trifluoromethoxy)phenyl)acetamido)propyl)-4-hydroxy-5-(2-hydroxyacetamido)-2-((6-(prop-2-yn-1-yloxy)hexyl)oxy)tetrahydro-2H-pyran-2-carboxylic acid] | 1 to 10 µM | < 1 µM | < 1 µM |
| C#CCOCCCCCCO[C@]1(C(=O)O)C[C@H](O)[C@@H](NC(=O)CO)[C@H]([C@H](O)[C@H](O)CNC(=O)Cc2ccc(OC(F)(F)F)cc2)O1 [Compound 156, (2R,4S,5R,6R)-6-((1R,2R)-1,2-dihydroxy-3-(2-(4-(trifluoromethoxy)phenyl)acetamido)propyl)-4-hydroxy-5-(2-hydroxyacetamido)-2-((6-(prop-2-yn-1-yloxy)hexyl)oxy)tetrahydro-2H-pyran-2-carboxylic acid] | 1 to 10 µM | < 1 µM | < 1 µM |
| C#CCOCCCCCCO[C@]1(C(=O)O)C[C@H](O)[C@@H](NC(=O)CO)[C@H]([C@H](O)[C@H](O)CNC(=O)Cc2ccc(C(F)F)cc2)O1 [Compound 157, (2R,4S,5R,6R)-6-((1R,2R)-3-(2-(4-(difluoromethyl)phenyl)acetamido)-1,2-dihydroxypropyl)-4-hydroxy-5-(2-hydroxyacetamido)-2-((6-(prop-2-yn-1-yloxy)hexyl)oxy)tetrahydro-2H-pyran-2-carboxylic acid] | < 1 µM | < 1 µM | < 1 µM |
